Test results taken from patent US20230406864A1, “7-AZOLE SUBSTITUTED 2-AMINOQUINAZOLINE INHIBITORS OF HPK1” (MERCK SHARP & DOHME LLC, priority 2020, published 2023).

Target: T1, Human HPK1, catalytic domain (Homo sapiens, UniProt Q92918)
T1 construct: purchased Cama (so in the source)
T1 sequence (Q92918 1-346): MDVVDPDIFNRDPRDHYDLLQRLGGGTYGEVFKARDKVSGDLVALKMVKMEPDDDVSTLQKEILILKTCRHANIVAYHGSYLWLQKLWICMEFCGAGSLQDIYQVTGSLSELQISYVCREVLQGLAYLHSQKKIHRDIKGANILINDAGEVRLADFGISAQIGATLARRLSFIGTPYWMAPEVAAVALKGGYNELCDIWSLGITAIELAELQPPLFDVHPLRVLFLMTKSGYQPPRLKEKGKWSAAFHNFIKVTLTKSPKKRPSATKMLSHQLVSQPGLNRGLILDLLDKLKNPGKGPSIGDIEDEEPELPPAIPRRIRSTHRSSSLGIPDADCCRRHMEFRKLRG
Assay: HPK1-SLP76 TR-FRET assay
Type: biochemical
Settings: HPK1 kinase domain 0.075 nM; full length SLP-76 10 nM; ATP 10 μM; 30 min preincubation; 60 min reaction; room temperature

Structure (SMILES) | IC50 [pM]
Cc1c(-c2cc3nc(Nc4cc5n(n4)CCN(C(C)C)C(=O)C5)ncc3c(N)c2F)cnc2c1NCCO2 [Example 2-20, 2-{[5-amino-6-fluoro-7-(8-methyl-2,3-dihydro-1H-pyrido[2,3-b][1,4]oxazin-7-yl)quinazolin-2-yl]amino}-6-(propan-2-yl)-7,8-dihydro-4H-pyrazolo[1,5-d][1,4]diazepin-5(6H)-one] | 63
Cc1c(-c2cc3nc(Nc4cnn(C5CCC5)c4)ncc3c(N)c2F)cnc2c1NCCO2 [Example 2-23, N~2~-(1-cyclobutyl-1H-pyrazol-4-yl)-6-fluoro-7-(8-methyl-2,3-dihydro-1H-pyrido[2,3-b][1,4]oxazin-7-yl)quinazoline-2,5-diamine] | 190
CCn1cc(Nc2ncc3c(N)c(F)c(-c4cnc5c(c4C)NCCO5)cc3n2)c(C)n1 [Example 2-27, N~2~-(1-ethyl-3-methyl-1H-pyrazol-4-yl)-6-fluoro-7-(8-methyl-2,3-dihydro-1H-pyrido[2,3-b][1,4]oxazin-7-yl)quinazoline-2,5-diamine] | 1000
CNC(=O)C12CC(n3cc(Nc4ncc5c(N)c(F)c(-c6cnc7c(c6C)NCCO7)cc5n4)cn3)(C1)C2 [Example 2-28, 3-(4-{[5-amino-6-fluoro-7-(8-methyl-2,3-dihydro-1H-pyrido[2,3-b][1,4]oxazin-7-yl)quinazolin-2-yl]amino}-1H-pyrazol-1-yl)-N-methylbicyclo[1.1.1]pentane-1-carboxamide] | 94
Cc1c(-c2cc3nc(Nc4cnn(C(F)F)c4C)ncc3c(N)c2F)cnc2c1NCCO2 [Example 2-29, N~2~-[1-(difluoromethyl)-5-methyl-1H-pyrazol-4-yl]-6-fluoro-7-(8-methyl-2,3-dihydro-1H-pyrido[2,3-b][1,4]oxazin-7-yl)quinazoline-2,5-diamine] | 100
Cc1nn(CC(F)F)cc1Nc1ncc2c(N)c(F)c(-c3cnc4c(c3C)NCCO4)cc2n1 [Example 2-31, N~2~-[1-(2,2-difluoroethyl)-3-methyl-1H-pyrazol-4-yl]-6-fluoro-7-(8-methyl-2,3-dihydro-1H-pyrido[2,3-b][1,4]oxazin-7-yl)quinazoline-2,5-diamine] | 200

Continued by falling IC50, values first:

IC50 [pM] | Structure (SMILES)
1100 | Cc1c(-c2cc3nc(Nc4cnn(CC(C)(C)O)c4)ncc3c(N)c2F)cnc2c1NCCO2 [Example 2-24, 1-(4-{[5-amino-6-fluoro-7-(8-methyl-2,3-dihydro-1H-pyrido[2,3-b][1,4]oxazin-7-yl)quinazolin-2-yl]amino}-1H-pyrazol-1-yl)-2-methylpropan-2-ol]
490 | Cc1c(-c2cc3nc(Nc4cnn(C5CC5)c4Cl)ncc3c(N)c2F)cnc2c1NCCO2 [Example 2-25, N~2~-(5-chloro-1-cyclopropyl-1H-pyrazol-4-yl)-6-fluoro-7-(8-methyl-2,3-dihydro-1H-pyrido[2,3-b][1,4]oxazin-7-yl)quinazoline-2,5-diamine]
380 | Cc1c(-c2cc3nc(Nc4cnn(C5(C)CC5)c4Cl)ncc3c(N)c2F)cnc2c1NCCO2 [Example 2-26, N~2~-[5-chloro-1-(1-methylcyclopropyl)-1H-pyrazol-4-yl]-6-fluoro-7-(8-methyl-2,3-dihydro-1H-pyrido[2,3-b][1,4]oxazin-7-yl)quinazoline-2,5-diamine]
76 | CCn1cc(Nc2ncc3c(N)c(F)c(-c4cnc5c(c4C)NCCO5)cc3n2)cn1 [Example 2-22, N~2~-(1-ethyl-1H-pyrazol-4-yl)-6-fluoro-7-(8-methyl-2,3-dihydro-1H-pyrido[2,3-b][1,4]oxazin-7-yl)quinazoline-2,5-diamine]
51 | Cc1c(-c2cc3nc(Nc4cnn(C)c4C)ncc3c(N)c2F)cnc2c1NCCO2 [Example 2-30, N~2~-(1,5-dimethyl-1H-pyrazol-4-yl)-6-fluoro-7-(8-methyl-2,3-dihydro-1H-pyrido[2,3-b][1,4]oxazin-7-yl)quinazoline-2,5-diamine]
